Test results taken from ChEMBL document CHEMBL1201862, “PubChem BioAssay data set” (2004).
The source made the active and inactive calls.

Legend:
[1] = M. tuberculosis H37Rv growth inhibitors, H37Rv strain (AID 1626); assay type: functional
[2] = biological target: T1, Estrogen receptor (Homo sapiens, UniProt P03372);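 note: potency for inhibiting coactivator peptide recruitment to the receptor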
T1 sequence (P03372 whole entry): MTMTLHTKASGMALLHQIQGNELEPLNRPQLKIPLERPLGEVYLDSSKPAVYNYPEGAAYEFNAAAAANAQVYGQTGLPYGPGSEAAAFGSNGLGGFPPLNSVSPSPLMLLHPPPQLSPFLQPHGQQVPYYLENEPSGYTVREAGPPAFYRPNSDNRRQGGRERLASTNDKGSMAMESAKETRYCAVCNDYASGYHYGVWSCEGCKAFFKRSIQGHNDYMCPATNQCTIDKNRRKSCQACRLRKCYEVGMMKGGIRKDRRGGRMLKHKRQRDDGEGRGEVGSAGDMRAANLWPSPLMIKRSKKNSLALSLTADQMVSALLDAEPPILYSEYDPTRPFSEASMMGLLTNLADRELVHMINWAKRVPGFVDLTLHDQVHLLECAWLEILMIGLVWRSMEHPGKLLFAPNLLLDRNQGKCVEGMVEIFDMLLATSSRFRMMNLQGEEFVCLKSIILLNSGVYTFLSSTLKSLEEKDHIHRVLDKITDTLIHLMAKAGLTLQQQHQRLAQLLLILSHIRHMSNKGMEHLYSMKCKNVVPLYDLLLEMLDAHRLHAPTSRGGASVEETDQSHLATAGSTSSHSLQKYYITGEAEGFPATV

[3] = biological target: T2, Estrogen receptor beta (Homo sapiens, UniProt Q92731);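 note: recombinant ER-beta bound to coactivator SRC1 peptide in presence of estradiol agonist; inhibitors block coactivator peptide binding and lower the FRET signal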
T2 sequence (Q92731 whole entry): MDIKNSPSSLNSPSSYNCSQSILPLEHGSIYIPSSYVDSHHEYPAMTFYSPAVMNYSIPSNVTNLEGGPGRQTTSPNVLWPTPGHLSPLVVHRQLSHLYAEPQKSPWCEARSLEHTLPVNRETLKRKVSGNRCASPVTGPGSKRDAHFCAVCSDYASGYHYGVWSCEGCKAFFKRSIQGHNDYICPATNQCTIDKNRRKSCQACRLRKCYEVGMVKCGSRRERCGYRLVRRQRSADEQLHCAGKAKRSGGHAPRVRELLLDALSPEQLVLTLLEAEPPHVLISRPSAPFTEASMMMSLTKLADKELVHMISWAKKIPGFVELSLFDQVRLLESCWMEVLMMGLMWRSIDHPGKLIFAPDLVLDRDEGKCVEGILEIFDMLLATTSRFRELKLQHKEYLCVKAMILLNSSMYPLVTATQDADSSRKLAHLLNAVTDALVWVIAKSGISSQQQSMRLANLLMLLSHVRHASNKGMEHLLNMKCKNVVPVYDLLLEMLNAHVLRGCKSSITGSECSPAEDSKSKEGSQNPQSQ

[4] = biological target: T2, Estrogen receptor beta; experiment: blockers of SRC-3 recruitment to ERβ – biochemical, ELISA, streptavidin-HRP readout, orthogonal assay, confirmation (AID 1060)
[5] = test system: Streptococcus sp. 'group A'; experiment: Streptococcus pyogenes SK(-)GAS viability under kanamycin – luminescence, BacTiterGlo, confirmation, counter-screen for streptokinase expression inhibitor project, dose response (AID 1900); assay type: functional, organism-based
[6] = biological target: Induced myeloid leukemia cell differentiation protein Mcl-1 (Homo sapiens, UniProt Q07820); assay type: functional
Sequence of Induced myeloid leukemia cell differentiation protein Mcl-1 (Q07820 whole entry): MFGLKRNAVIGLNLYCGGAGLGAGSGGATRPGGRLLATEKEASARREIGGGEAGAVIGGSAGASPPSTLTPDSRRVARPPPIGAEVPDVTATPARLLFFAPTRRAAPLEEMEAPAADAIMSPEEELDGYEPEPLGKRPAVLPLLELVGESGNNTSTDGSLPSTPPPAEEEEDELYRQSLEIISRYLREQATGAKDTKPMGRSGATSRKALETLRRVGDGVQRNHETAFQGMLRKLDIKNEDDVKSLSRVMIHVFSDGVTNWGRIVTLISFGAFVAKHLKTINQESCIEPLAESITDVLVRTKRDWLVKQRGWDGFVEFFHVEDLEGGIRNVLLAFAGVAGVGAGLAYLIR

[7] = test system: Streptococcus; experiment: GAS UMAA2166 growth inhibition – luminescence, BacTiterGlo, counter-screen for streptokinase expression inhibitor project, dose response (AID 1915); assay type: functional, organism-based;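 note: potency for reduction of bacterial viability or growth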
[8] = biological target: Eukaryotic translation initiation factor 4E (Mus musculus, UniProt P63073); experiment: blockers of eIF4G binding by eIF4E – biochemical, TR-FRET, dose response (AID 855); assay type: functional;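 note: potency for disrupting eIF4E binding to eIF4GI seen as loss of FRET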
Sequence of Eukaryotic translation initiation factor 4E (P63073 whole entry): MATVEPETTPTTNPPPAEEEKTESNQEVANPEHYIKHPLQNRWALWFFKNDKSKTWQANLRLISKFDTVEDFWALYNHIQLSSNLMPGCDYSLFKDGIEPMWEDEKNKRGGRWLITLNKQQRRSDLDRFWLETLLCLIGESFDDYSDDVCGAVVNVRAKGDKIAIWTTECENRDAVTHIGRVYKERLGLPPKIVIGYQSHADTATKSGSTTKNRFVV

[9] = biological target: DNA (cytosine-5)-methyltransferase 1 (Homo sapiens, UniProt P26358); experiment: inhibition of DNA methylation by DNMT1 – biochemical, fluorescent molecular beacon, confirmation (AID 602386); assay type: functional
Sequence of DNA (cytosine-5)-methyltransferase 1 (P26358 whole entry): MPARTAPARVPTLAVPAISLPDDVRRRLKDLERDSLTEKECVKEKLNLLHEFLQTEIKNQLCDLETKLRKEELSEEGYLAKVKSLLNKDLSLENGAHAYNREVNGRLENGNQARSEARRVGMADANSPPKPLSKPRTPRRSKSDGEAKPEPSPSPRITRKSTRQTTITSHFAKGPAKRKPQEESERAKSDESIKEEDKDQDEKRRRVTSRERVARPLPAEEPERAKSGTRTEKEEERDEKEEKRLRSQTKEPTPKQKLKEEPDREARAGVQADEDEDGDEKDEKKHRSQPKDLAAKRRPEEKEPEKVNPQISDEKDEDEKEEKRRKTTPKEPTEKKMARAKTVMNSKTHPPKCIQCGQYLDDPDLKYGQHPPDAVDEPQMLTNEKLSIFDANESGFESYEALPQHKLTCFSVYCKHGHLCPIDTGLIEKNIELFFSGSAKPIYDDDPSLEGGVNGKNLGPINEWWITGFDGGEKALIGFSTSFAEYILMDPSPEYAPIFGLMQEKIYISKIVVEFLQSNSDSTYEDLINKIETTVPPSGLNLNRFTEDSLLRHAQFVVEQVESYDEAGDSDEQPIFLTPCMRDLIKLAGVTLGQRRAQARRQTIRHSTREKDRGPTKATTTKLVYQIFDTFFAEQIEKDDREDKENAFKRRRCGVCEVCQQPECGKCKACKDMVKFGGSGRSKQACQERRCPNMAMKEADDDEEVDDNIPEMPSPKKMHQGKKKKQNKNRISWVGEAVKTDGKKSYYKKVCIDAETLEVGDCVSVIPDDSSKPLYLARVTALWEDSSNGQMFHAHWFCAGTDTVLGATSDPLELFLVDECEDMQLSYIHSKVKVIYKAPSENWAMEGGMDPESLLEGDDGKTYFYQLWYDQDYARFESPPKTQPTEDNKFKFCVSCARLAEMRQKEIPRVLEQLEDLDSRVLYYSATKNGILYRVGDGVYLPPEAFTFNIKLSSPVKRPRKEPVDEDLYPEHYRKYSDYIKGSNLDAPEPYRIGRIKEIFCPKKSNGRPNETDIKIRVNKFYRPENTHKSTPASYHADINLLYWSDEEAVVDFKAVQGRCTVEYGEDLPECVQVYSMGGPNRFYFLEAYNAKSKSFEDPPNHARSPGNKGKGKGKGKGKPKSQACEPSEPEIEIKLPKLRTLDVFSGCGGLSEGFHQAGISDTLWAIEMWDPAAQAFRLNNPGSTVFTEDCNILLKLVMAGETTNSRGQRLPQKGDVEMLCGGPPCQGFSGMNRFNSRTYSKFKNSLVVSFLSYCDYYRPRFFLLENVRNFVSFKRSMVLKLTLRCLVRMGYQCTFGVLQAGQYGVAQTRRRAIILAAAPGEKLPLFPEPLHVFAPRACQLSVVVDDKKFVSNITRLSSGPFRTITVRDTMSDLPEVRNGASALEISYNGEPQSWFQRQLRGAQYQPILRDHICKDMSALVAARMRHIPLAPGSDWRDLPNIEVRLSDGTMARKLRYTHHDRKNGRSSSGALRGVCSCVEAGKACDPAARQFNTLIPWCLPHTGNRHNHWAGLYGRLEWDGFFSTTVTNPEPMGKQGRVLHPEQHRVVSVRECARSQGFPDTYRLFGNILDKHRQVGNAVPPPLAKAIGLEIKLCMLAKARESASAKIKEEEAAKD

[10] = test system: HEK293; experiment: inhibition of NOD1-driven NF-kB reporter – cell-based, luminescence, uHTS, primary screen (AID 1578); assay type: functional; details: Homo sapiens
[11] = test system: HEK293; experiment: cells; assay type: functional, cell-based; details: Homo sapiens
[12] = test system: HEK293; experiment: cells; assay type: functional, cell-based; details: Homo sapiens; remark: listed apart in the source
[13] = biological target: Nucleotide-binding oligomerization domain-containing protein 2 (Homo sapiens, UniProt Q9HC29); experiment: inhibition of NOD2-driven NF-kB reporter – cell-based, luminescence, uHTS, HEK293 (AID 1566); assay type: functional
Sequence of Nucleotide-binding oligomerization domain-containing protein 2 (Q9HC29 whole entry, the tested form may be a part): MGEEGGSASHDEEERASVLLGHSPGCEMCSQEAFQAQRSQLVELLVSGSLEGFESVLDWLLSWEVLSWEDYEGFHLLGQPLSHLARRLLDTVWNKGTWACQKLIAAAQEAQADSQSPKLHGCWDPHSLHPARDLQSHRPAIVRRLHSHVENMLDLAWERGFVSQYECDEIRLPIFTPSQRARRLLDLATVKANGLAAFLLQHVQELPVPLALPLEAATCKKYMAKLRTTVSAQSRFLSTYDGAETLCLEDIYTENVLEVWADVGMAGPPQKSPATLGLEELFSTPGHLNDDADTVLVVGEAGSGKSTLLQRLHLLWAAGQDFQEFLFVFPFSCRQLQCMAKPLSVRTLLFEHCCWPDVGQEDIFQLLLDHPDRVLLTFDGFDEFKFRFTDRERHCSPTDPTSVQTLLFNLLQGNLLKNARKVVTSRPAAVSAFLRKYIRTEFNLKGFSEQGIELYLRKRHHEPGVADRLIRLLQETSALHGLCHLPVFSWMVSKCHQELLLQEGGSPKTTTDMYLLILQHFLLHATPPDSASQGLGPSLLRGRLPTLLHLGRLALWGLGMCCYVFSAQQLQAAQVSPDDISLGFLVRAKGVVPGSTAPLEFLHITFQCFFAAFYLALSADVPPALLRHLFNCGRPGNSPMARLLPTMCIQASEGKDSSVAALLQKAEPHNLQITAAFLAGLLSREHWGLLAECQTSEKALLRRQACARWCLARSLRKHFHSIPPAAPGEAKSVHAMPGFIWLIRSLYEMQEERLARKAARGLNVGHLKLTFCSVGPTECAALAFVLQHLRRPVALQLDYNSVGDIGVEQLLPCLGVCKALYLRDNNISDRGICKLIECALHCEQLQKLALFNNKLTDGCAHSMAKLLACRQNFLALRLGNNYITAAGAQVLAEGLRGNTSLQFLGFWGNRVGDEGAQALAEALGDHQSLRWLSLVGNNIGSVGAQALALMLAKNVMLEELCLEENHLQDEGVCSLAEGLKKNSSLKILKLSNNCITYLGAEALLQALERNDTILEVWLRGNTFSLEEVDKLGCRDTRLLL

[14] = test system: HEK293; experiment: NOD2 signaling inhibitors in MDP-stimulated cells, cell-based, uHTS, luminescence (AID 2001); assay type: functional; details: Homo sapiens
[15] = test system: HEK293; experiment: cells; assay type: functional, cell-based; details: Homo sapiens; remark: listed apart in the source
[16] = A Cell Based Secondary Assay To Explore Cytotoxicity of Compounds that Sensitize Mycobacterium Tuberculosis to Beta-Lactam Antibiotics.; assay type: functional
[17] = biological target: T3, Corticotropin-releasing factor receptor 2/Corticotropin-releasing factor-binding protein (Homo sapiens, UniProt P24387+Q13324); experiment: Dose Response confirmation of uHTS hits for small molecule antagonists of the CRF-binding protein and CRF-R2 receptor complex.; assay type: functional; details: read-out: IC50_Mean
T3 sequence (Q13324 whole entry): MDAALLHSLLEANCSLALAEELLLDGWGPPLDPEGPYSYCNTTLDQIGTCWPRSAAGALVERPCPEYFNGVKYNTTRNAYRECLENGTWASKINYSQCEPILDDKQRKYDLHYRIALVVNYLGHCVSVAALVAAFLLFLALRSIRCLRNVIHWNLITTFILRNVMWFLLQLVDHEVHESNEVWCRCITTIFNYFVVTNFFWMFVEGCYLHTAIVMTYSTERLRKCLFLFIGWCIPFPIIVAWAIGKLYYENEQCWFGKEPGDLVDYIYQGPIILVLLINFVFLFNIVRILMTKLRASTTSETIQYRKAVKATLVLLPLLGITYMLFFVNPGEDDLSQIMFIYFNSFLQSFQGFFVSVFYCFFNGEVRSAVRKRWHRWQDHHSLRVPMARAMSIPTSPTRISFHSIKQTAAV
T3 sequence (P24387 whole entry): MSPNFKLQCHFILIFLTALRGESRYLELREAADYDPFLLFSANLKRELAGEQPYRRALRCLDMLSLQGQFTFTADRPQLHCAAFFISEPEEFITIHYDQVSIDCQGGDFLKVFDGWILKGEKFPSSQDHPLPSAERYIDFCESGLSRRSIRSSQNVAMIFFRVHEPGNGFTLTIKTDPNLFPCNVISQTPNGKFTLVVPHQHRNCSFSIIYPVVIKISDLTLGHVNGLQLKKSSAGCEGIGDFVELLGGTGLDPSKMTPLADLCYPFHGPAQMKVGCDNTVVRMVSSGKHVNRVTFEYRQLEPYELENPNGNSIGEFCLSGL

[18] = biological target: T3, Corticotropin-releasing factor receptor 2/Corticotropin-releasing factor-binding protein; experiment: activators of CRF receptor 2 with binding protein – uHTS hits, confirmation (AID 602473); assay type: functional; details: read-out: EC50_Mean
[19] = biological target: G-protein coupled receptor 55 (Homo sapiens, UniProt Q9Y2T6); experiment: selective activators of receptor GPR55 – imaging, U2OS cells, beta-arrestin-GFP redistribution, primary screen (AID 1961); assay type: functional
Sequence of G-protein coupled receptor 55 (Q9Y2T6 whole entry): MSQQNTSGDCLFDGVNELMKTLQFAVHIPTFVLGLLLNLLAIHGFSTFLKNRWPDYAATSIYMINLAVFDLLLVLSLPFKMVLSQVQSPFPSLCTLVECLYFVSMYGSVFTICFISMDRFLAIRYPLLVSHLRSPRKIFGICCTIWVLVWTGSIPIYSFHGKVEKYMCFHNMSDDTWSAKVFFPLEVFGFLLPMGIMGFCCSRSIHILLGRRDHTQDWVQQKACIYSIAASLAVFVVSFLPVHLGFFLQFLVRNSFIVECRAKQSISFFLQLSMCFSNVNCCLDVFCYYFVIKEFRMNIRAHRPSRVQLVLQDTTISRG

[20] = biological target: Cytochrome P450 2C9 (Homo sapiens, UniProt P11712)
Sequence of Cytochrome P450 2C9 (P11712 whole entry): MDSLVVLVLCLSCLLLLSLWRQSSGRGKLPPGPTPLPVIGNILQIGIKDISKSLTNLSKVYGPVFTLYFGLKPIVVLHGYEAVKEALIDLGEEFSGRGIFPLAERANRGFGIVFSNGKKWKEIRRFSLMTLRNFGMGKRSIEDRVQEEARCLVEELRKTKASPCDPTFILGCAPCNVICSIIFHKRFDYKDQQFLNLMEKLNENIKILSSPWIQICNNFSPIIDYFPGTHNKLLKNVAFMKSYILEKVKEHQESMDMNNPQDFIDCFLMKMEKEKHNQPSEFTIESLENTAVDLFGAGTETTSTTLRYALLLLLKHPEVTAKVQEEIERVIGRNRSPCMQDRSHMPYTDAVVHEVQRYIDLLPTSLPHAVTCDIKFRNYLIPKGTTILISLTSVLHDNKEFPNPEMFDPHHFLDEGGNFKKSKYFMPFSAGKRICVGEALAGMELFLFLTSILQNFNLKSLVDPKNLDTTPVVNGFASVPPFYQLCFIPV

[21] = Trypanosoma cruzi growth suppression in host cells – NIH3T3 host cells, beta-gal luminescence, confirmation (AID 2044); assay type: functional, cell-based;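 note: intracellular parasites grown in NIH/3T3 mouse fibroblasts as host cells; luminescent beta-galactosidase reporter signal from transgenic T. cruzi replicating inside host cells; inhibitors lower the luminescence signal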
[22] = NIH3T3 cell viability loss – ATP luminescence, mouse fibroblasts, counter-screen, dose response (AID 2010); assay type: functional, cell-based;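 note: cells exposed to compound for about 90 hours before reading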
[23] = biological target: T4, Mannose-6-phosphate isomerase (Homo sapiens, UniProt P34949); experiment: MPI inhibition at elevated mannose 6-phosphate – biochemical, fluorescence intensity, high mannose 6-phosphate, primary screen (AID 1220)
T4 sequence (P34949 whole entry): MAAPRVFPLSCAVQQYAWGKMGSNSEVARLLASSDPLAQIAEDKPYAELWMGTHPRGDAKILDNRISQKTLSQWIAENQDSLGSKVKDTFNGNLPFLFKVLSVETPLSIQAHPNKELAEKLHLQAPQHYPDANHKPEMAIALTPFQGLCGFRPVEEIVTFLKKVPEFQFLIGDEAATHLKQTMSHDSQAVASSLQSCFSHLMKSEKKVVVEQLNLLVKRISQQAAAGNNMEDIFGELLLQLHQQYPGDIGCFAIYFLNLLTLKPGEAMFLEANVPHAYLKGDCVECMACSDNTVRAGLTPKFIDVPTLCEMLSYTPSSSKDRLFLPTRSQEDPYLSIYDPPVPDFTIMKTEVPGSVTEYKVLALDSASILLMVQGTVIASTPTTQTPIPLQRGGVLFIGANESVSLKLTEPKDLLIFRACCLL

[24] = biological target: T5, Protein RecA (Mycobacterium tuberculosis, UniProt P9WHJ3); experiment: Fluorescence Cell-Free Homogeneous Dose Retest to Identify Inhibitors of RecA-Intein Splicing Activity. [Related pubchem assays (depositor defined):AID2097, AID2223, AID489010, AID492950]; assay type: functional
T5 sequence (P9WHJ3 whole entry): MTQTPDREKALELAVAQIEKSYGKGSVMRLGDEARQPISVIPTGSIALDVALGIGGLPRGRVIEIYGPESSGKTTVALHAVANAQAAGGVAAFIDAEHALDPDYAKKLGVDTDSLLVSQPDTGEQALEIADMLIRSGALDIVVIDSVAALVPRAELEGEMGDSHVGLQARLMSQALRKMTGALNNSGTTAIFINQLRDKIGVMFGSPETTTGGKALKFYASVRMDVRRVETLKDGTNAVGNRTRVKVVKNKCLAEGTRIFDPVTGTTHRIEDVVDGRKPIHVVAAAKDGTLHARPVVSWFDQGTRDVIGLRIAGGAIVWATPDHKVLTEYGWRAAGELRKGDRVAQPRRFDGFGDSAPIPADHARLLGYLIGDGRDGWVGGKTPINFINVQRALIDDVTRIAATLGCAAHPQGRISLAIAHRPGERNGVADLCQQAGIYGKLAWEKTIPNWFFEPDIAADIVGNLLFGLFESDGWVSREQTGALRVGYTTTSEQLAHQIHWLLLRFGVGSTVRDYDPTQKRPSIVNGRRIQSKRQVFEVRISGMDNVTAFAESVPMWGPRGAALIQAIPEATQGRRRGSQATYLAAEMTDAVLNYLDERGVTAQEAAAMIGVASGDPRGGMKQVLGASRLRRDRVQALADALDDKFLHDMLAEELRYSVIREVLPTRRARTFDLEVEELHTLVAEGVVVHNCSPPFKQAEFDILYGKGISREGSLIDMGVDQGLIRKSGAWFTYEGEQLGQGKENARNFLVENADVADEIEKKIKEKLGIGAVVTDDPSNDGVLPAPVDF

[25] = biological target: T6, Replicative DNA helicase DnaB (Mycobacterium tuberculosis, UniProt P9WMR3); experiment: DnaB intein splicing inhibitors, dose response, biochemical, cell-free fluorescence (AID 449749); assay type: functional
T6 sequence (P9WMR3 whole entry): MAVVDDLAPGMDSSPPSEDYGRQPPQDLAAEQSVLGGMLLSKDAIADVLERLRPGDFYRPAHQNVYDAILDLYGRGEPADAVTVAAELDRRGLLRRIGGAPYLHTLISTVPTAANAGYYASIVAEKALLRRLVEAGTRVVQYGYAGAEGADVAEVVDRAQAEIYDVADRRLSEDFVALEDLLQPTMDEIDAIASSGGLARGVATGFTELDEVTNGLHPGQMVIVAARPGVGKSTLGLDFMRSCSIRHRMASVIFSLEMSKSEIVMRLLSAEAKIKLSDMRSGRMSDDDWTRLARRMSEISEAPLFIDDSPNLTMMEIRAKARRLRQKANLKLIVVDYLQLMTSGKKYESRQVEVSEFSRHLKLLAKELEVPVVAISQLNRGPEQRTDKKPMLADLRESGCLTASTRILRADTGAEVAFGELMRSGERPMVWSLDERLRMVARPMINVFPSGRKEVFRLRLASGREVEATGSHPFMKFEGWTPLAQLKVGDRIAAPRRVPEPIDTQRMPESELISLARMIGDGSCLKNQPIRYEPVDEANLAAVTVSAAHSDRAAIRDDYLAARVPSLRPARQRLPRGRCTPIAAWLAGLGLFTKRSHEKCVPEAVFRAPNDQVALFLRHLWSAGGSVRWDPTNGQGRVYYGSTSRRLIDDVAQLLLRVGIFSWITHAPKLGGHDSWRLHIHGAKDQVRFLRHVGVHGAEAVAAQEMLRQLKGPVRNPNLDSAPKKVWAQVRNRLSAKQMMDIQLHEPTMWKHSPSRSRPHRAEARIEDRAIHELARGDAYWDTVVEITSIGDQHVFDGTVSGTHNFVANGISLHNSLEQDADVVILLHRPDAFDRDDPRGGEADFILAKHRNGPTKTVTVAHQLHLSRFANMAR

[26] = viability loss in THP-1 monocytes – THP-1 cells, cytotoxicity control for Vif-APOBEC3G degradation inhibitor project, dose response (AID 1117359); assay type: functional; details: THP-1

SMILES: Cc1ccc(NC(=O)COC(=O)CC2CCCC2)cc1Cl
- IC50 [1]: > 100 µM (active)

SMILES: C=CCn1c(SCC(=O)NC(=O)NCc2ccco2)nc2sc(CC)cc2c1=O
- IC50 [2]: 10.1 µM (active)
- IC50 [3]: 13.6 µM (active)
- IC50 [4]: 0.0317 µM (not active)

SMILES: Cc1ccc(NC(=O)CN2C(=O)S/C(=C/c3ccc(-c4cc(C(=O)O)ccc4C)o3)C2=O)cc1C
- EC50 [5]: 2.31 µM (active)
- IC50 [2]: 18.2 µM (active)
- IC50 [6]: 2.05 µM (active)
- EC50 [7]: 6.89 µM (active)
- IC50 [8]: 14.4 µM (active)
- IC50 [9]: 11.3 µM (active)

SMILES: O=C(Nc1cccc(Br)c1)c1ccc(Cl)c(S(=O)(=O)N2CCOCC2)c1
- EC50 [10]: 10.3 µM (active)
- IC50 [11]: 2.87 µM (active)
- IC50 [12]: 6.44 µM (active)
- EC50 [13]: > 20 µM (inactive)
- IC50 [14]: 3.44 µM (active)
- IC50 [15]: > 20 µM (inactive)

SMILES: Cc1cc2c(N=NC(=O)C3CC3c3ccccc3)c(O)[nH]c2cc1Br (stereo not drawn)
- CC50 [16]: 32.8 µM (active)
- IC50 [17]: > 47.1 µM (inactive)
- EC50 [18]: > 53 µM (inactive)

SMILES: O=C(CSc1nc2ccccc2o1)N1c2ccccc2Sc2ccc(Cl)cc21
- EC50 [19]: > 32 µM (inactive)
- AC50 [20]: 3.16 µM (inconclusive)

SMILES: CCCCn1c(N)c(C(=O)NCc2cccs2)c2nc3ccccc3nc21
- EC50 [21]: 2.83 µM (active)
- EC50 [22]: > 60 µM (not active)
- IC50 [23]: > 50 µM (not active)
- EC50 [24]: 47.4 µM (inconclusive)

SMILES: Cc1ccc(Cc2cnc(NC(=O)C3CCCO3)s2)cc1 (stereo not drawn)
- IC50 [1]: > 100 µM (active)

SMILES: CC(=O)Nc1cccc(OCc2ccc(F)cc2)c1
- IC50 [1]: > 100 µM (active)

SMILES: O=C(Oc1ccc(N2C(=O)CCC2=O)cc1)c1ccco1
- IC50 [2]: > 50 µM (not active)
- AC50 [25]: 0.351 µM (inconclusive)
- EC50 [24]: 0.388 µM (active)

SMILES: O=CN1CCN(c2ncnc3c2nnn3Cc2c(F)cccc2Cl)CC1
- EC50 [19]: 12.7 µM (inactive)

SMILES: COc1cccc(/C=N/NC(=O)c2cnccn2)c1O
- CC50 [16]: > 40 µM (active)
- CC50 [26]: > 40 µM (active)
